According to patent US7652055B2, “2-imidazolines” (Hoffman-La Roche Inc., priority 2007, dated 2010):

molecular target: T1, TAAR1 (Mus musculus, UniProt Q923Y8); assay: Radioligand binding assay on membranes of HEK293 cells stably expressing TAAR1; settings: mouse TAAR1; radioligand [3H]-rac-2-(1,2,3,4-tetrahydro-1-naphthyl)-2-imidazoline at 60 nM; 4° C., 30 min
T1 construct: expressed in transfected cells; host or cells: HEK293 (ATCC # CRL-1573), stably transfected with pIRESneo2 expression plasmid; membranes prepared
Experimental: Construction of TAAR Expression Plasmids and Stably Transfected Cell Lines
For the construction of expression plasmids the coding sequences of human, rat and mouse TAAR 1 were amplified from genomic DNA essentially as described by Lindemann et al.. The Expand High Fidelity PCR System (Roche Diagnostics) was used with 1.5 mM Mg^2+ and purified PCR products were cloned into pCR2.1-TOPO cloning vector (Invitrogen) following the instructions of the manufacturer. PCR products were subcloned into the pIRESneo2 vector (BD Clontech, Palo Alto, Calif.), and expression vectors were sequence verified before introduction in cell lines.
HEK293 cells (ATCC # CRL-1573) were cultured essentially as described Lindemann et al. (2005). For the generation of stably transfected cell lines HEK293 cells were transfected with the pIRESneo2 expression plasmids containing the TAAR coding sequences (described above) with Lipofectamine 2000 (Invitrogen) according to the instructions of the manufacturer, and 24 hrs post transfection the culture medium was supplemented with 1 mg/ml G418 (Sigma, Buchs, Switzerland). After a culture period of about 10 d clones were isolated, expanded and tested for responsiveness to trace amines (all compounds purchased from Sigma) with the cAMP Biotrak Enzyme immunoassay (EIA) System (Amersham) following the non-acetylation EIA procedure provided by the manufacturer.
Membrane Preparation and Radioligand Binding
Cells at confluence were rinsed with ice-cold phosphate buffered saline without Ca^2+ and Mg^2+ containing 10 mM EDTA and pelleted by centrifugation at 1000 rpm for 5 min at 4° C. The pellet was then washed twice with ice-cold phosphate buffered saline and cell pellet was frozen immediately by immersion in liquid nitrogen and stored until use at −80° C. Cell pellet was then suspended in 20 ml HEPES-NaOH (20 mM), pH 7.4 containing 10 mM EDTA, and homogenized with a Polytron (PT 3000, Kinematica) at 10,000 rpm for 10 s. The homogenate was centrifuged at 48,000×g for 30 min at 4° C. and the pellet resuspended in 20 ml HEPES-NaOH (20 mM), pH 7.4 containing 0.1 mM EDTA (buffer A), and homogenized with a Polytron at 10,000 rpm for 10 s. The homogenate was then centrifuged at 48,000×g for 30 min at 4° C. and the pellet resuspended in 20 ml buffer A, and homogenized with a Polytron at 10,000 rpm for 10 s. Protein concentration was determined by the method of Pierce (Rockford, Ill.). The homogenate was then centrifuged at 48,000×g for 10 min at 4° C., resuspended in HEPES-NaOH (20 mM), pH 7.0 including MgCl2 (10 mM) and […] homogenized with a Polytron at 10,000 rpm for 10 s.
Binding assay was performed at 4° C. in a final volume of 1 ml, and with an incubation time of 30 min. The radioligand [^3H]-rac-2-(1,2,3,4-tetrahydro-1-naphthyl)-2-imidazoline was used at a concentration equal to the calculated Kd value of 60 nM to give a bound at around 0.1% of the total added radioligand concentration, and a specific binding which represented approximately 70-80% of the total binding. Non-specific binding was defined as the amount of [^3H]-rac-2-(1,2,3,4-tetrahydro-1-naphthyl)-2-imidazoline bound in the presence of the appropriate unlabelled ligand (10 μM). Competing ligands were tested in a wide range of concentrations (10 pM-30 μM). […] Each experiment was performed in duplicate. All incubations were terminated by rapid filtration through UniFilter-96 plates (Packard Instrument Company) and glass filter GF/C, pre-soaked for at least 2 h in polyethylenimine 0.3%, and using a Filtermate 96 Cell Harvester (Packard Instrument Company). The tubes and filters were then washed 3 times with 1 ml aliquots of cold buffer B. Filters were not dried and soaked in Ultima gold (45 μl/well, Packard Instrument Company) and bound radioactivity was counted by a TopCount Microplate Scintillation Counter (Packard Instrument Company).

T1 sequence (Q923Y8 whole entry): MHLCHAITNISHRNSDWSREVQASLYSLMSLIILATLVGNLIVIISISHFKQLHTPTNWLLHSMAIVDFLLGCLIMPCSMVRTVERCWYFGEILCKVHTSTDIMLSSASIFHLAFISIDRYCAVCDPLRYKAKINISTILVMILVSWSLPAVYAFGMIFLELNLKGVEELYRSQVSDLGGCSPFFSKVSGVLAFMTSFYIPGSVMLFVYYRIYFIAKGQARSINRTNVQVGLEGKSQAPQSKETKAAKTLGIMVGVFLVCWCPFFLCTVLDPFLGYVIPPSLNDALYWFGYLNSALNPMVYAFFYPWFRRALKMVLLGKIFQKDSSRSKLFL

Row | Ki [µM] | SMILES
1 | 0.0057 | Cc1c(Cl)cccc1NNC1=NCCN1 [Example K25, N-(3-Chloro-2-methyl-phenyl)-N′-(4,5-dihydro-1H-imidazol-2-yl)-hydrazine]
2 | 0.025 | CC(C)Oc1ccc(OCc2ccc(OCC3=NCCN3)cc2)cc1 [Example 13, 2-[4-(4-Isopropoxy-phenoxymethyl)-phenoxymethyl]-4,5-dihydro-1H-imidazole]
3 | 0.0022 | Clc1cc(NCC2=NCCN2)ccc1Br [Example 1, (4-Bromo-3-chloro-phenyl)-(4,5-dihydro-1H-imidazol-2-ylmethyl)-amine]
4 | 0.0011 | Fc1cc(NCC2=NCCN2)ccc1Cl [Example 2, (4-Chloro-3-fluoro-phenyl)-(4,5-dihydro-1H-imidazol-2-ylmethyl)-amine]
5 | 0.0325 | c1ccc(C2CC2)c(OCC2=NCCN2)c1 [Example K20, 2-(2-Cyclopropyl-phenoxymethyl)-4,5-dihydro-1H-imidazole]
6 | 0.0432 | COc1ccccc1N(C)CC1=NCCN1 [Example 9, (4,5-Dihydro-1H-imidazol-2-ylmethyl)-(2-methoxy-phenyl)-methyl-amine]
7 | 0.0329 | Clc1ccc(OCC2=NCCN2)cc1Cl [Example 27, 2-(3,4-Dichloro-phenoxymethyl)-4,5-dihydro-1H-imidazole]
8 | 0.007 | Clc1cccc(NCC2=NCCN2)c1 [Example K2, (3-Chloro-phenyl)-(4,5-dihydro-1H-imidazol-2-ylmethyl)-amine]
9 | 0.0028 | Cc1c(NCC2=NCCN2)ccc2occc12 [Example 7, (4,5-Dihydro-1H-imidazol-2-ylmethyl)-(4-methyl-benzofuran-5-yl)-amine]
10 | 0.0075 | Clc1cccc(SCC2=NCCN2)c1Cl [Example 31, 2-(2,3-Dichloro-phenylsulfanylmethyl)-4,5-dihydro-1H-imidazole]
11 | 0.0059 | CN(CC1=NCCN1)c1ccc(Cl)c(Cl)c1 [Example 4, (3,4-Dichloro-phenyl)-(4,5-dihydro-1H-imidazol-2-ylmethyl)-methyl-amine]
12 | 0.0443 | COc1ccc(Cc2ccc(NCC3=NCCN3)cc2)cc1 [Example 8, (4,5-Dihydro-1H-imidazol-2-ylmethyl)-[4-(4-methoxy-benzyl)-phenyl]-amine]
13 | 0.0441 | c1ccc(CCCc2ccc(OCC3=NCCN3)cc2)cc1 [Example 15, 2-[4-(3-Phenyl-propyl)-phenoxymethyl]-4,5-dihydro-1H-imidazole]
14 | 0.044 | Cc1ccc(NNC2=NCCN2)cc1C [Example 35, N-(4,5-Dihydro-1H-imidazol-2-yl)-N′-(3,4-dimethyl-phenyl)-hydrazine]
15 | 0.0084 | CN(CC1=NCCN1)c1cccc(Cl)c1 [Example 3, (3-Chloro-phenyl)-(4,5-dihydro-1H-imidazol-2-ylmethyl)-methyl-amine]
16 | 0.0158 | CC(C)Oc1ccc(C(=O)CCc2ccc(OC(C)C3=NCCN3)cc2)cc1 (stereo not drawn) [Example 12, 3-{4-[1-(4,5-Dihydro-1H-imidazol-2-yl)-ethoxy]-phenyl}-1-(4-isopropoxy-phenyl)-propan-1-one]
17 | 0.0054 | c1ccc(Cc2cccc(OCC3=NCCN3)c2)cc1 [Example 14, 2-(3-Benzyl-phenoxymethyl)-4,5-dihydro-1H-imidazole]
18 | 0.0262 | CC(Oc1c(Cl)cccc1Cl)C1=NCCN1 (stereo not drawn) [Example K21, 2-[1-(2,6-Dichloro-phenoxy)-ethyl]-4,5-dihydro-1H-imidazole]
19 | 0.023 | Clc1ccc(NCC2=NCCN2)cc1 [Example K1, (4-Chloro-phenyl)-(4,5-dihydro-1H-imidazol-2-ylmethyl)-amine]

Row | SMILES | Ki [µM]
20 | FC(F)(F)c1cccc(OCC2=NCCN2)c1 [Example K17, 2-(3-Trifluoromethyl-phenoxymethyl)-4,5-dihydro-1H-imidazole] | 0.0913
21 | Clc1ccccc1OCC1=NCCN1 [Example K10, 2-(2-Chloro-phenoxymethyl)-4,5-dihydro-1H-imidazole] | 0.064
22 | Fc1cccc(OCC2=NCCN2)c1F [Example 21, 2-(2,3-Difluoro-phenoxymethyl)-4,5-dihydro-1H-imidazole] | 0.0341
23 | FC(F)(F)c1cccc(OCC2=NCCN2)c1Cl [Example 20, 2-(2-Chloro-3-trifluoromethyl-phenoxymethyl)-4,5-dihydro-1H-imidazole] | 0.0016
24 | c1cc2ccc(OCC3=NCCN3)cc2o1 [Example 17, 2-(Benzofuran-6-yloxymethyl)-4,5-dihydro-1H-imidazole] | 0.0372
25 | Cc1c(O)ccc(OCC2=NCCN2)c1C [Example 24, 4-(4,5-Dihydro-1H-imidazol-2-ylmethoxy)-2,3-dimethyl-phenol] | 0.093
26 | Clc1cccc(OCC2=NCCN2)c1Cl [Example K12, 2-(2,3-Dichloro-phenoxymethyl)-4,5-dihydro-1H-imidazole] | 0.0063

same assay, conditions: radioligand of the binding assay; TAAR1 species not stated at this place; read-out: calculated Kd value of the radioligand

Row | SMILES | Kd [nM]
27 | c1ccc2c(c1)CCCC2C1=NCCN1 (racemic) [[^3H]-rac-2-(1,2,3,4-tetrahydro-1-naphthyl)-2-imidazoline, reference compound] | 60
